According to PMC12042413 (Cell chemical biology, 2025):

What was measured:
[1] = target: CDK9/Cyclin T1 (Homo sapiens, UniProt P50750); assay: biochemical kinase IC50
[2] = target: CDK9 (Homo sapiens, UniProt P50750); assay: competition rescue of CDK9 degradation in MOLT-4 cells; format: cell-based
CDK9, sequence (P50750 whole entry): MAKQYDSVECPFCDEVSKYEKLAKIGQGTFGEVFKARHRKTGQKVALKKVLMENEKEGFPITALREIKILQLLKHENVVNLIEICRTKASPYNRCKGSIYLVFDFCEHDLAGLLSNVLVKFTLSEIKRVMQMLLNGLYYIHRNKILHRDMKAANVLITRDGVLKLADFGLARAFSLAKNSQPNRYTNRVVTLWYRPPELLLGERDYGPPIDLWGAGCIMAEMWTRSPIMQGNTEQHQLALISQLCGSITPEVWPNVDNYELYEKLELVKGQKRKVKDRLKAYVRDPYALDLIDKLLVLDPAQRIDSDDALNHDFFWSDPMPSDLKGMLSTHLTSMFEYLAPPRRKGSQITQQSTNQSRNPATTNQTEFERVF

CDK9/Cyclin T1, sequence (P50750 whole entry): as above
CDK9/Cyclin T1, sequence (O60563 whole entry partner): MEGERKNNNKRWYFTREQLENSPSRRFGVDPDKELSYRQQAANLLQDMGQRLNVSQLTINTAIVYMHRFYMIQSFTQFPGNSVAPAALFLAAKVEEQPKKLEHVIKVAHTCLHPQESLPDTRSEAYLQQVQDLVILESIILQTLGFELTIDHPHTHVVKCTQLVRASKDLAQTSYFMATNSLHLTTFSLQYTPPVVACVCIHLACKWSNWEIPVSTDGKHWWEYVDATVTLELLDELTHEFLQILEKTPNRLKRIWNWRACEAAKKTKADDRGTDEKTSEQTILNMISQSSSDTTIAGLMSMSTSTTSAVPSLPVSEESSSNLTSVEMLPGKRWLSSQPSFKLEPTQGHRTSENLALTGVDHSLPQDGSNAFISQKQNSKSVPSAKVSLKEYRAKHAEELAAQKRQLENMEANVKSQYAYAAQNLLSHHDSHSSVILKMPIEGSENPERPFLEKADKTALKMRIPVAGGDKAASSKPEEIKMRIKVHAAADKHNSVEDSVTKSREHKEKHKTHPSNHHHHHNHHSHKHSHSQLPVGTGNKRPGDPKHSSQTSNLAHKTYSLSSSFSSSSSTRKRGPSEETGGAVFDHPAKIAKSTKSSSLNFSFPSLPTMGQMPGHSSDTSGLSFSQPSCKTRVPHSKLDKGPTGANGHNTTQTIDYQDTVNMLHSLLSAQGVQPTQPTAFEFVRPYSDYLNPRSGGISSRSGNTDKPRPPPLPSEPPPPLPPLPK

| SMILES | IC50 [1] | competition rescue of CDK9 degradation in MOLT-4 cells (Western blot, 5 uM) [2] |
| --- | --- | --- |
| CCCc1cc(N[C@@H]2CC[C@@H](NC(=O)c3ccc(CN4CCN(c5ccc6c(c5)CN(C5CCC(=O)NC5=O)C6=O)CC4)cc3)C2)n2nccc2n1 (stereo partly drawn) [KI-CDK9d-32, 4-((4-(2-(2,6-dioxopiperidin-3-yl)-1-oxoisoindolin-5-yl)piperazin-1-yl)methyl)-N-((1R,3R)-3-((5-propylpyrazolo[1,5-a]pyrimidin-7-yl)amino)cyclopentyl)benzamide] | 3 nM |  |
| CCCc1cc(N[C@@H]2CC[C@@H](NC(=O)c3ccc(CN4CCN(c5ccc6c(c5)CN(C5CCC(=O)N(C)C5=O)C6=O)CC4)cc3)C2)n2nccc2n1 (stereo partly drawn) [KI-CDK9d-32N, 4-((4-(2-(1-methyl-2,6-dioxopiperidin-3-yl)-1-oxoisoindolin-5-yl)piperazin-1-yl)methyl)-N-((1R,3R)-3-((5-propylpyrazolo[1,5-a]pyrimidin-7-yl)amino)cyclopentyl)benzamide] |  | rescued through co-treatments with excess KB-0742, pomalidomide, or KI-CDK9d-32N, a negative control PROTAC with impaired CRBN binding |
